Reference: patent US11718604B2, “4-amino-6-(1,3-benzodioxole)picolinates and their use as herbicides” (Dow AgroSciences LLC, priority 2018, dated 2023)

Columns and labels:
Assay type in all cases: in vivo
[1] = test system: IPOHE: ivyleaf morningglory (Ipomoea hederacea); assay: Post-emergent herbicidal test, ivyleaf morningglory; details: post-emergence, 336 h, 14 days after application, read-out: Visual Growth Reduction (%) 14 Days After Application IPOHE; for pest or weed control at 17.5 g/ha: 17.5 g ai/ha; for pest or weed control at 35 g/ha: 35 g ai/ha; for pest or weed control at 70 g/ha: 70 g ai/ha; for pest or weed control at 140 g/ha: 140 g ai/ha
Procedure, shortened: (§1)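 Scores reflect visual injury (0–100%) at 14 d post-spray on young plants treated at the 1st/2nd true leaf stage. Greenhouse held at about 23-29° C day and 22-28° C night; spray volume 187 L/ha, with solvent-blank controls.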

[2] = test system: ECHCG: barnyardgrass (Echinochloa crus-galli); assay: Post-emergent herbicidal test, barnyardgrass; details: post-emergence, 336 h, 14 days after application, read-out: Visual Growth Reduction (%) 14 Days After Application ECHCG; for pest or weed control at 17.5 g/ha: 17.5 g ai/ha; for pest or weed control at 35 g/ha: 35 g ai/ha; for pest or weed control at 70 g/ha: 70 g ai/ha; for pest or weed control at 140 g/ha: 140 g ai/ha
Procedure, shortened: as §1

[3] = test system: BRSNN: oilseed rape, canola (Brassica napus); assay: Post-emergent herbicidal test, oilseed rape; details: post-emergence, 336 h, 14 days after application, read-out: Visual Growth Reduction (%) 14 Days After Application BRSNN; for pest or weed control at 17.5 g/ha: 17.5 g ai/ha; for pest or weed control at 35 g/ha: 35 g ai/ha; for pest or weed control at 70 g/ha: 70 g ai/ha; for pest or weed control at 140 g/ha: 140 g ai/ha
Procedure, shortened: as §1

[4] = test system: EPHHL: wild poinsettia (Euphorbia heterophylla); assay: Post-emergent herbicidal test, wild poinsettia; details: post-emergence, 336 h, 14 days after application, read-out: Visual Growth Reduction (%) 14 Days After Application EPHHL; for pest or weed control at 17.5 g/ha: 17.5 g ai/ha; for pest or weed control at 35 g/ha: 35 g ai/ha; for pest or weed control at 70 g/ha: 70 g ai/ha; for pest or weed control at 140 g/ha: 140 g ai/ha
Procedure, shortened: as §1

[5] = test system: SETFA: giant foxtail (Setaria faberi); assay: Post-emergent herbicidal test, giant foxtail; details: post-emergence, 336 h, 14 days after application, read-out: Visual Growth Reduction (%) 14 Days After Application SETFA; for pest or weed control at 17.5 g/ha: 17.5 g ai/ha; for pest or weed control at 35 g/ha: 35 g ai/ha; for pest or weed control at 70 g/ha: 70 g ai/ha; for pest or weed control at 140 g/ha: 140 g ai/ha
Procedure, shortened: as §1

[6] = test system: DIGSA: large crabgrass (Digitaria sanguinalis); assay: Post-emergent herbicidal test, large crabgrass; details: post-emergence, 336 h, 14 days after application, read-out: Visual Growth Reduction (%) 14 Days After Application DIGSA; for pest or weed control at 17.5 g/ha: 17.5 g ai/ha; for pest or weed control at 35 g/ha: 35 g ai/ha; for pest or weed control at 70 g/ha: 70 g ai/ha; for pest or weed control at 140 g/ha: 140 g ai/ha
Procedure, shortened: as §1

[7] = test system: SORVU: shattercane (Sorghum bicolor); assay: Post-emergent herbicidal test, shattercane; details: post-emergence, 336 h, 14 days after application, read-out: Visual Growth Reduction (%) 14 Days After Application SORVU; for pest or weed control at 17.5 g/ha: 17.5 g ai/ha; for pest or weed control at 35 g/ha: 35 g ai/ha; for pest or weed control at 70 g/ha: 70 g ai/ha; for pest or weed control at 140 g/ha: 140 g ai/ha
Procedure, shortened: as §1

[8] = test system: CYPES: yellow nutsedge (Cyperus esculentus); assay: Post-emergent herbicidal test, yellow nutsedge; details: post-emergence, 336 h, 14 days after application, read-out: Visual Growth Reduction (%) 14 Days After Application CYPES; for pest or weed control at 17.5 g/ha: 17.5 g ai/ha; for pest or weed control at 35 g/ha: 35 g ai/ha; for pest or weed control at 70 g/ha: 70 g ai/ha; for pest or weed control at 140 g/ha: 140 g ai/ha
Procedure, shortened: as §1

[9] = test system: VIOTR: wild violet (Viola tricolor); assay: Post-emergent herbicidal test, wild violet; details: post-emergence, 336 h, 14 days after application, read-out: Visual Growth Reduction (%) 14 Days After Application VIOTR; for pest or weed control at 17.5 g/ha: 17.5 g ai/ha; for pest or weed control at 35 g/ha: 35 g ai/ha; for pest or weed control at 70 g/ha: 70 g ai/ha; for pest or weed control at 140 g/ha: 140 g ai/ha
Procedure, shortened: as §1

[10] = test system: ABUTH: velvetleaf (Abutilon theophrasti); assay: Post-emergent herbicidal test, velvetleaf; details: post-emergence, 336 h, 14 days after application, read-out: Visual Growth Reduction (%) 14 Days After Application ABUTH; for pest or weed control at 17.5 g/ha: 17.5 g ai/ha; for pest or weed control at 35 g/ha: 35 g ai/ha; for pest or weed control at 70 g/ha: 70 g ai/ha; for pest or weed control at 140 g/ha: 140 g ai/ha
Procedure, shortened: as §1

[11] = test system: CIRAR: Canada thistle (Cirsium arvense); assay: Post-emergent herbicidal test, Canada thistle; details: post-emergence, 336 h, 14 days after application, read-out: Visual Growth Reduction (%) 14 Days After Application CIRAR; for pest or weed control at 17.5 g/ha: 17.5 g ai/ha; for pest or weed control at 35 g/ha: 35 g ai/ha; for pest or weed control at 70 g/ha: 70 g ai/ha; for pest or weed control at 140 g/ha: 140 g ai/ha
Procedure, shortened: as §1

**Q.** Which results are given for `Nc1c(F)c(-c2ccc(F)c3c2OC(F)(F)O3)nc(C(=O)O)c1Cl` [Compound 8]?
**A.** pest or weed control at 17.5 g/ha [1]: 0%; pest or weed control at 35 g/ha [1]: 0%; pest or weed control at 70 g/ha [1]: 10%; pest or weed control at 140 g/ha [1]: 10%; pest or weed control at 17.5 g/ha [2]: 0%; pest or weed control at 35 g/ha [2]: 0%; pest or weed control at 70 g/ha [2]: 0%; pest or weed control at 140 g/ha [2]: 0%; pest or weed control at 17.5 g/ha [3]: 70%; pest or weed control at 35 g/ha [3]: 75%; pest or weed control at 70 g/ha [3]: 85%; pest or weed control at 140 g/ha [3]: 97%; pest or weed control at 17.5 g/ha [4]: 0%; pest or weed control at 35 g/ha [4]: 0%; pest or weed control at 70 g/ha [4]: 0%; pest or weed control at 140 g/ha [4]: 0%; pest or weed control at 17.5 g/ha [5]: 0%; pest or weed control at 35 g/ha [5]: 0%; pest or weed control at 70 g/ha [5]: 0%; pest or weed control at 140 g/ha [5]: 0%; pest or weed control at 17.5 g/ha [6]: 0%; pest or weed control at 35 g/ha [6]: 0%; pest or weed control at 70 g/ha [6]: 0%; pest or weed control at 140 g/ha [6]: 0%; pest or weed control at 17.5 g/ha [7]: 0%; pest or weed control at 35 g/ha [7]: 0%; pest or weed control at 70 g/ha [7]: 0%; pest or weed control at 140 g/ha [7]: 0%; pest or weed control at 17.5 g/ha [8]: 0%; pest or weed control at 35 g/ha [8]: 0%; pest or weed control at 70 g/ha [8]: 0%; pest or weed control at 140 g/ha [8]: 10%; pest or weed control at 17.5 g/ha [9]: 0%; pest or weed control at 35 g/ha [9]: 5%; pest or weed control at 70 g/ha [9]: 15%; pest or weed control at 140 g/ha [9]: 35%; pest or weed control at 17.5 g/ha [10]: 30%; pest or weed control at 35 g/ha [10]: 40%; pest or weed control at 70 g/ha [10]: 60%; pest or weed control at 140 g/ha [10]: 75%; pest or weed control at 17.5 g/ha [11]: 20%; pest or weed control at 35 g/ha [11]: 75%; pest or weed control at 70 g/ha [11]: 80%; pest or weed control at 140 g/ha [11]: 80%

**Q.** Which results are given for `Nc1c(F)c(-c2cccc3c2OC(F)(F)O3)nc(C(=O)O)c1Cl` [Compound 5]?
**A.** pest or weed control at 17.5 g/ha [1]: 0%; pest or weed control at 35 g/ha [1]: 0%; pest or weed control at 70 g/ha [1]: 0%; pest or weed control at 140 g/ha [1]: 10%; pest or weed control at 17.5 g/ha [2]: 0%; pest or weed control at 35 g/ha [2]: 0%; pest or weed control at 70 g/ha [2]: 0%; pest or weed control at 140 g/ha [2]: 0%; pest or weed control at 17.5 g/ha [3]: 75%; pest or weed control at 35 g/ha [3]: 80%; pest or weed control at 70 g/ha [3]: 85%; pest or weed control at 140 g/ha [3]: 95%; pest or weed control at 17.5 g/ha [4]: 0%; pest or weed control at 35 g/ha [4]: 0%; pest or weed control at 70 g/ha [4]: 0%; pest or weed control at 140 g/ha [4]: 0%; pest or weed control at 17.5 g/ha [5]: 0%; pest or weed control at 35 g/ha [5]: 0%; pest or weed control at 70 g/ha [5]: 0%; pest or weed control at 140 g/ha [5]: 0%; pest or weed control at 17.5 g/ha [6]: 0%; pest or weed control at 35 g/ha [6]: 0%; pest or weed control at 70 g/ha [6]: 0%; pest or weed control at 140 g/ha [6]: 0%; pest or weed control at 17.5 g/ha [7]: 0%; pest or weed control at 35 g/ha [7]: 0%; pest or weed control at 70 g/ha [7]: 0%; pest or weed control at 140 g/ha [7]: 0%; pest or weed control at 17.5 g/ha [8]: 0%; pest or weed control at 35 g/ha [8]: 0%; pest or weed control at 70 g/ha [8]: 0%; pest or weed control at 140 g/ha [8]: 0%; pest or weed control at 17.5 g/ha [9]: 0%; pest or weed control at 35 g/ha [9]: 0%; pest or weed control at 70 g/ha [9]: 10%; pest or weed control at 140 g/ha [9]: 10%; pest or weed control at 17.5 g/ha [10]: 10%; pest or weed control at 35 g/ha [10]: 20%; pest or weed control at 70 g/ha [10]: 40%; pest or weed control at 140 g/ha [10]: 50%; pest or weed control at 17.5 g/ha [11]: 60%; pest or weed control at 35 g/ha [11]: 70%; pest or weed control at 70 g/ha [11]: 75%; pest or weed control at 140 g/ha [11]: 80%
